The subject of one series is K562. As to the kind of experiment: Growth of human erythroid cell line K562. Particulars: for growth of K562: over 3 days. The series is classed as cell-based. As for the experimental part: Such activities might limit their utility for treatment of anemias such as occur in thalassemia, but alternatively would be useful for anticancer effects. […]
Cell viability analyses were performed using fluorescent staining to detect living cells. Cells were in log phase of growth in 6-well dishes when used in proliferation assays. For enumeration of living cells, wells were washed once with medium to remove nonadherent or dead cells. Remaining live cells were labeled with Calcein-AM for 20 minutes at 37° C. and washed once. Fluorescence intensity of adherent live cells was read on a CytoFluor 2300 Fluorescence Plate Scanner (Millipore; Bedford, Mass.) at excitation and emission wavelengths of 485 and 530 nm, respectively. The fluorescence intensity of a well was proportional to the number of living cells in the well. Background fluorescence was measured separately for each plate and subtracted from all readings. Each experiment was performed in triplicate or quadruplicate. The standard deviation (SD) of repetitive readings was less than 30% of the mean.
At higher concentrations, still easily achievable in vivo, arginine butyrate (0.5 mM) and dihydrocinnamic acid (greater than 0.5 mM) inhibited growth of this tumor cell line by approximately 50%. Therefore, these compounds are also useful as anti-tumor agents.

In the next series the test system is MCF-7 cells. Put plainly: Growth/viability of human mammary carcinoma cells. The series is classed as cell-based. Particulars: MCF7, 96 h, 4 days, read-out: growth decrease of MCF-7 cells. As to the method:
Human mammary carcinoma cells (MCF-7) were cultured alone (controls) and with arginine butyrate or isobutyramide for 4 days. Viability was assayed by FACS after incubation with a fluorescent dye taken up by viable cells (FIG. 6). Growth was decreased by 50% with isobutyramide at 1.0 mM, about 60% with arginine butyrate at 0.5 mM, and greater than 90% with arginine butyrate at 1.0 mM.

In series [1] the test system is γ-globin promoter (-61 construct, K562 cells). The series is classed as cell-based, human. An excerpt:
Functional assay underscores the important role of FRE-γ1 in γ-globin gene expression in K562 cells. To ascertain whether the FRE elements of the γ-globin promoter that were identified by in vivo footprinting were indeed involved in arginine butyrate inducibility for γ-globin gene expression, a series of 5' deletion constructs of the γ-globin promoter, extending from -256 to -61, were constructed and linked them to the NEO gene. Activity of the NEO gene of these constructs, in response to arginine butyrate treatment, was examined by transfecting these reporters into K562 cells. In K562 cells, a construct driven by 256 bp of promoter was able to direct NEO activity expression, resulting in colony formation. […] Deletion to position -61 reduced promoter activity to 33-40% of the activity seen with the -256 bp construct.

The next series has as its system γ-globin mRNA. Particulars: patients with globin disorders; cited from earlier work.
Series [2] deals with BFU-e (burst forming unit-erythroid). Put plainly: BFU-e stimulation (colony growth) in cultured peripheral blood mononuclear cells. The series is classed as cell-based. Particulars: Homo sapiens, PBMC, read-out: more BFU-e colonies from the same number of mononuclear cells than control cultures. As for the experimental part:
Peripheral blood was collected from normal volunteers and patients with anemia due to sickle cell disease or thalassemia Mononuclear cells were isolated by Ficoll-Hypaque (Pharmacia Biotech; Piscataway, N.J.) centrifugation and cultured in Iscove's Modified Dulbecco's Media (IMDM; GIBCO/BRL; Grand Island, N.Y.) supplemented with 10% fetal calf serum, 300 μg/ml glutamine, 3 units/ml IL 3 (Amgen; Thousand Oaks, Calif.), and 2 units/ml erythropoietin (Terry Fox Labs; Vancouver, B.C.). Chemical compounds were obtained from Sigma Chemical (St. Louis, Mo.) or Aldrich Chemical (Milwaukee, Wis.), unless otherwise indicated, and formulated into pharmaceutical compositions by dissolving in aqueous solutions of media or sterile water pH adjusted to about 7.4. Solutions were sterilized by passage at least once through 0.22 micron Nalgene filters and added to cell cultures at final concentrations that are pharmaceutically achievable in vivo (typically between about 0.1 mM to 2.0 MM). Cells were incubated with compounds for between 13-14 days at 37° C. in humidified 5% CO2, and fed and passed, as necessary. Colony growth, proportion of fetal globin-expressing cells and amounts of fetal globin production were assayed. Results are presented in Table 1 as BFU-e stimulation (colony growth). […]

Series [3] relates to fetal globin (gamma globin). As to the kind of experiment: Fetal globin expression in erythroid progenitor cells from cord blood. The series is classed as cell-based, human. As to the method: Compositions were tested for activity in inducing fetal globin expression and protein production in erythroid progenitor cells cultured from human cord blood and analyzed as described by S. P. Perrine et al. (Blood 74: 454-60, 1989). Briefly, mononuclear cells were cultured in IMDM with 30% fetal calf serum and 2 units erythropoietin per ml to induce erythroid differentiation. Colonies were harvested on day 12-13, incubated with radio-labelled (^3 H) leucine, and further incubated in leucine-free media, still in the presence of compounds, overnight. Globin composition in the erythroid cells was analyzed by laser densitometry of electrophoretically separated globin chains stained with Coomassie blue, and by autoradiography. Treated cells were incubated for 12-13 days (Table 2, Experiments A and B) or overnight (Table 2, Experiment C) in the presence of the indicated compounds and compared to untreated control cells cultured from the same human subject.

Series [4] deals with proximal promoter of the gamma globin gene (K562 cells). As to the kind of experiment: Gamma globin promoter-neomycin transfection (61 bp proximal promoter), G418-resistant colonies. The series is classed as cell-based, human. As for the experimental part: Gamma globin promoter-neomycin transfection experiments were performed to determine if compounds act by inducing an increase in activity from the proximal promoter of the gamma globin gene. Constructs containing 61 bp of the proximal gamma globin promoter were linked to the reporter gene for neomycin phosphotransferase (NEO) and transfected into permissive K562 cells by electroporation. After 18 hours, transfected cells were passed at 10^3 cells per well into RPMI media containing G418 (neomycin), which kills all mammalian cells unless the gene for NEO is expressed. Phenoxyacetic acid and thiophenoxyacetic acid were added to some of the cells plated into the RPMI/G418 media at concentrations of 1 mM. Cultures were incubated for 8 weeks with media changes performed as needed. Colonies which survived and grew in the presence of G418 were scored and the number of such colonies was compared to those generated when the cells were plated into G418 media without the test compounds. […] There was a greater than 6-fold (>600%) increase in proportions of colonies surviving the presence of phenoxyacetic acid (6/24 wells) and a three-fold (300%) increase in survival in the presence of thiophenoxyacetic acid (3/24 wells).

The subject of series [5] is hemoglobin polymerization. Particulars: artificially deoxygenated blood; cited from earlier work.
Setting [6] is: Homo sapiens, K562, 1344 h, read-out: increase in proportions of colonies surviving.

For the compound `CCCC(=O)O` [AB, arginine butyrate], the “growth of K562” value in the series with K562 (0.2 mM) is given as “either did not inhibit, or slightly enhanced growth”. Moreover, the inhibition at 500 µM in the series with K562 (Homo sapiens, K562, 0.5 mM) is ~50%; in the series with MCF-7 cells (0.5 mM) it was ~60%. For the same compound, in the series with MCF-7 cells (1.0 mM), the inhibition at 1000 µM is > 90%. In series [1], the “induction of construct activity” value is on record as 2.5-4 fold. Further, in the series on γ-globin mRNA, the “levels of γ-globin mRNA” value is “increase in response to butyrate treatment”.
As to `O=C(O)COc1ccccc1` [PAA, Phenoxyacetic acid], the activation at 100 µM in series [2] worked out at 135%. In addition, the “Gamma/(Gamma + Beta)” value in series [3] (Exp. A, 0.1 mM, 12-13 days, untreated 76.0%) stood at 82.0%; in series [3] (Exp. B, 0.5 mM, 12-13 days, untreated 25.4%, 27.5%), 38.8%; in series [3] (Exp. C, 0.5 mM, overnight, untreated 52.0%), 55.6%. The “growth of K562” value in the series on K562 (0.5 mM) is on record as “either did not inhibit, or slightly enhanced growth”. Further, in series [4] (1 mM, 8 weeks in G418, none of 24 wells without compound), the colonies surviving is listed as 6/24. Besides, in series [4] (setting [6]), the activation at 1000 µM was > 600%. Further, the fold induction at 1000 µM in series [4] (setting [6]) is > 6. Moreover, in series [5], the inhibition of polymerization result is “inhibit polymerization”.

The values above are taken from patent US6011000A, “Compositions for the treatment of blood disorders” (priority 1995, dated 2000).
